Columns and labels:
[1] = system: SH-SY5Y human neuroblastoma cells; experiment: cells; assay type: cell-based
Procedure: Toxicity assays in human neuroblastoma cells. SH-SY5Y human neuroblastoma cells were cultured in DMEM/Ham's F-12 (1:1) media, supplemented with 10% FBS, penicillin (100 IU/ml), streptomycin (100 μg/ml), and L-glutamine (2 mM); the cell culture medium was replaced every two days. Cultures were maintained at 37° C. in 95% air-5% CO2 in a humidified incubator. A standard curve established the linear range for the assay of approximately 1000-7000 cells/well for a 96 well plate. All data reported were within this range. MTS assay concentration-response curves were performed as follows: 1800 cells/well were plated in 96 well plates. After 30 h, media was changed to include no toxicant (control) or toxicant at varying concentrations. The cells were then exposed for 48 h, the media was removed, and 100 μl minimum essential medium without phenol red and 20 μl MTS reagent were added. Cells were incubated, and 2 h later, plates were measured at 490 nm on an ELx 808 microplate reader (Bio-Tek Instruments, Winooski, Vt.). EC50 values were determined via nonlinear regression using Prism software (GraphPad, San Diego, Calif.).
Cytotoxicity tests in human neuroblastoma cells. The 3-(4,5-dimethylthiazol-2-yl)-5-(3-carboxymethoxyphenyl)-2-(4-sulfophenyl)-2H-tetrazolium (MTS) assay is a quantitative colorimetric assay for measurement of cellular proliferation, cytotoxicity and viability. MTS is converted to a formazan product only in living cells. MTS is similar to 3-(4,5-dimethylthiazol-2-yl)-2,5-diphenyltetrazolium bromide (MTT), which is widely used in cytotoxicity assays. The difference is that the formazan product for the MTS reagent is soluble in media while the MTT reagent is not.
To study the cytotoxicity of c-di-GMP in SH-SY5Y human neuroblastoma cells, increasing concentrations (0.0001-1000 μM) were added to the culture medium and cell viability was assessed by the MTS assay. […] Up to 100 μM, there was no effect on cell viability; at greater concentrations, a sharp decline in cell viability was observed.

[2] = Solubility and stability of c-di-GMP; assay type: physicochemical

In the case of `Nc1nc(=O)c2ncn([C@@H]3OC4COP(=O)(O)O[C@H]5[C@@H](O)[C@H](n6cnc7c(=O)nc(N)[nH]c76)O[C@@H]5COP(=O)(O)OC4C3O)c2[nH]1` (some centres unmarked) [c-di-GMP, Bis(3′-->5′)-cyclic diguanylic acid], the “cytotoxicity on human neuroblastoma cells” value [1] is reported as “no cytotoxicity”, the EC50 ([1]; Homo sapiens, SH-SY5Y cells, 48 hr exposure, MTS assay, read-out: EC50 for decrease of cell viability) is reported as 350 µM and the “concentration with no effect on cell viability” value ([1]; human, 48 h) is reported as “Up to 100 μM”. For the same molecule, the stability ([2]; physiological conditions) was “stable” and the solubility ([2]; water physiological saline) was “soluble”.

— patent US7709458B2, “Method for inhibiting cancer cell proliferation or increasing cancer cell apoptosis” (priority 2004, dated 2010)
